Results: paper PMC10399197, “Insights into Enzymatic Catalysis from Binding and Hydrolysis of Diadenosine Tetraphosphate by E. coli Adenylate Kinase” (Biochemistry, 2023)
pKd: −log10 of the molar value.

Legend:
[1] = target: T1, adenylate kinase (AdK) (Escherichia coli, UniProt P69441); experiment: X-ray crystal structure at […] Å (AdK cocrystallized with AP4A; two ADP molecules modeled); format: binding
[2] = target: T1, adenylate kinase (AdK); experiment: Kd (Figure S1; ITC in the Supporting Information); also 1H-15N HSQC NMR, DEER EPR and […] NMR hydrolysis; format: binding; parameters: wild-type AdK

T1 sequence (P69441 whole entry): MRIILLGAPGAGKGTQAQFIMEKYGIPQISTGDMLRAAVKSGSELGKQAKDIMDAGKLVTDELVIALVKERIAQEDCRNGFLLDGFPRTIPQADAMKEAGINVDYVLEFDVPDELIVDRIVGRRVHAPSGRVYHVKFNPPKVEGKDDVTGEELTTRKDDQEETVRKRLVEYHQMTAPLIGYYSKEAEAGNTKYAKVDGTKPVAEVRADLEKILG

Row | SMILES | X-ray crystal structure at 1.49 Å (AdK cocrystallized with AP4A); two ADP molecul [1] | pKd [2]
1 | Nc1ncnc2c1ncn2[C@@H]1O[C@H](COP(=O)(O)OP(=O)(O)O)[C@@H](O)[C@H]1O [ADP] | the crystals trapped AdK in the closed conformation in complex with two ADP molecules | 
2 | Nc1ncnc2c1ncn2[C@@H]1O[C@H](COP(=O)(O)OP(=O)(O)OP(=O)(O)OP(=O)(O)OC[C@H]2O[C@@H](n3cnc4c(N)ncnc43)[C@H](O)[C@@H]2O)[C@@H](O)[C@H]1O [AP4A] |  | 4.85
